The text below walks through data of US20180148446A1, “PYRROLO [2,3-c] PYRIDINE COMPOUND, PROCESS FOR PRODUCING THE SAME, AND USE” (Takeda Pharmaceutical Company Limited, priority 2004, published 2018).

This assay concerns the target T1, H^+/K^+-ATPase (Sus scrofa, UniProt P19156).
T1 construct: The obtained microsome fraction was used as the H^+/K^+-ATPase standard product; from tissue; host or cells: pig stomach (corpus ventriculi) mucous membrane microsome fraction
Description: Proton, potassium-adenosine triphosphatase (H+/K+-ATPase) inhibitory activity test. It counts as biochemical. Conditions: pig stomach mucous membrane microsome fraction; pH 6.5, 37° C.; malachite green colorimetry at 610 nm; read-out: IC50 (50% inhibitory concentration of proton and potassium-adenosine triphosphatase). The procedure: Proton, Potassium-Adenosine Triphosphatase (H^+/K^+-ATPase) Inhibitory Activity Test
According to the method of Wallmark et al. [Biochem. Biophys. Acta., 728, 31 (1983)], a stomach mucous membrane microsome fraction was prepared from the stomach of a pig. First, the corpus ventriculi was isolated, washed with tap water, immersed in 3M brine, and the surface of the mucous membrane was wiped with a paper towel. The stomach mucous membrane was separated, chopped, and homogenized using polytron (Kinematica) in 0.25 M saccharose solution (pH 6.8) containing 1 mM EDTA and 10 mM tris hydrochloric acid. The obtained homogenate was centrifuged at 20,000×g for 30 min, and the supernatant was centrifuged at 100,000×g for 90 min. After suspending the precipitated part in a 0.25 M saccharose solution, layered on a 0.25 M saccharose solution containing 7.5% Ficoll, and centrifuged at 100,000×g for 5 hr. The fraction of the interface between the both layers was collected and washed by centrifugation with a 0.25 M saccharose solution.
The obtained microsome fraction was used as the H^+/K^+-ATPase standard product.
A test compound (5 μL) dissolved in a 10% aqueous dimethyl sulfoxide solution was added to 40 μL of a 50 mM Hepes-tris buffer (5 mM magnesium chloride, 10 mM potassium chloride, 10 μM valinomycin, pH=6.5) containing 2.5 μg/mL (based on the protein concentration) of an enzyme standard product, and the mixture was incubated at 37° C. for 30 min. The enzyme reaction was started by the addition of 5 μL of a 2 mM adenosine triphosphate tris salt solution (50 mM Hepes-tris buffer (5 mM magnesium chloride, pH 6.5)). The enzyme reaction was carried out at 37° C. for 20 min, and quenched by adding 15 μL of malachite green solution (a mixture of 0.12% malachite green sulfuric acid (5N) solution, 7.5% ammonium molybdate and 11% Tween 20 at a ratio of 100:25:2). The mixture was stood at room temperature for 15 min, and the resulting reaction product of inorganic phosphorus and malachite green was colorimetrically determined at a wavelength of 610 nm. The amount of inorganic phosphoric acid in a reaction solution free of potassium chloride was measured in the same manner. The H^+/K^+-ATPase activity was measured by subtracting the obtained amount from the amount of inorganic phosphoric acid in the presence of potassium chloride. The inhibitory rate (%) was determined from the control activity value and the activity value at each concentration of the test compound, and 50% inhibitory concentration (IC50) of proton and potassium-adenosine triphosphatase was determined.

Structures are written as SMILES. pIC50: −log10 of the molar value.

T1 sequence (P19156 2-1034 limits assumed): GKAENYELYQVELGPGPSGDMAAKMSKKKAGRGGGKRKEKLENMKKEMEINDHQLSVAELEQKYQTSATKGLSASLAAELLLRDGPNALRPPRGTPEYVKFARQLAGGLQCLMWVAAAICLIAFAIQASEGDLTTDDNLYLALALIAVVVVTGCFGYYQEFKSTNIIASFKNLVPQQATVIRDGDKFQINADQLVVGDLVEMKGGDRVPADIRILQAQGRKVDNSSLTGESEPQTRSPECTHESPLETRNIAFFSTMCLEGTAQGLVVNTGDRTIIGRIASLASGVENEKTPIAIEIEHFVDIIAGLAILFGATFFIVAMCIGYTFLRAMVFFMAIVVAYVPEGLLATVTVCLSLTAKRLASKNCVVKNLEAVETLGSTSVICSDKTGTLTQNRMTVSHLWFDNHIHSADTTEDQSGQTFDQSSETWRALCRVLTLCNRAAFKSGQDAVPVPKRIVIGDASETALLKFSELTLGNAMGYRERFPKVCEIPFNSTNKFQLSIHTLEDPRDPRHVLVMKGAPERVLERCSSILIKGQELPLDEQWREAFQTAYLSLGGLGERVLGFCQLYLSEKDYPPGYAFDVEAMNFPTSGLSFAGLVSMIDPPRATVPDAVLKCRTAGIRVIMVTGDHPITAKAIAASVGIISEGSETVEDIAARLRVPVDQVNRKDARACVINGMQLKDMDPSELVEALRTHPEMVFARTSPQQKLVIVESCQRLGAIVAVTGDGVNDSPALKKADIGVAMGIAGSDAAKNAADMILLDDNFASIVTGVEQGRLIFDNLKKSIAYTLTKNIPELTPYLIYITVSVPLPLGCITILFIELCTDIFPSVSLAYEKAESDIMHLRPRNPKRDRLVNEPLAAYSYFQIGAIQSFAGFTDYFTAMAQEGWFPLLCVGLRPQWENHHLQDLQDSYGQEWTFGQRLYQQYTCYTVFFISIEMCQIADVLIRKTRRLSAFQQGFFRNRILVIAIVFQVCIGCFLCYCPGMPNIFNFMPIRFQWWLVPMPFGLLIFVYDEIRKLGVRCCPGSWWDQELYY
T1 sequence (P18434 whole entry partner): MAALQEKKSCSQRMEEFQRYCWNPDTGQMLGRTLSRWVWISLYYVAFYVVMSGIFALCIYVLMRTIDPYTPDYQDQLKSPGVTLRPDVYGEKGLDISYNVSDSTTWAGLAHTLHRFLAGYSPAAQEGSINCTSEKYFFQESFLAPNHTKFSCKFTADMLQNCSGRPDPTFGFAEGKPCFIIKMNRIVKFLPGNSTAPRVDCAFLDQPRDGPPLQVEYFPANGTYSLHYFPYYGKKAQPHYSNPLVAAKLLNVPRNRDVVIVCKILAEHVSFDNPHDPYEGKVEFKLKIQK

Turning to `Cc1cc(F)ccc1CNc1nccc2c(CO)c(C)n(CC(C)C)c12` [Example 65, {7-[(4-fluoro-2-methylbenzyl)amino]-1-isobutyl-2-methyl-1H-pyrrolo[2,3-c]pyridin-3-yl}methanol], the pIC50 is 8.49. For the compound `Cc1cccc(C)c1CNc1nccc2c(C)c(C)[nH]c12` [Example 14, N-(2,6-dimethylbenzyl)-2,3-dimethyl-1H-pyrrolo[2,3-c]pyridine-7-amine], the pIC50 is 7.85. As for `Cc1cc2ccnc(NCc3ccccc3)c2n1CC1CC1` [Example 5, N-benzyl-1-(cyclopropylmethyl)-2-methyl-1H-pyrrolo[2,3-c]pyridine-7-amine], the pIC50 was 5.92. In the case of `Cc1[nH]c2c(NC3CCc4ccccc43)nccc2c1C` (centres unmarked) [Example 16, N-(2,3-dihydro-1H-inden-1-yl)-2,3-dimethyl-1H-pyrrolo[2,3-c]pyridine-7-amine], the pIC50 was 8.01. Consider `CCCn1c(C)cc2ccnc(NCc3ccccc3)c21` [Example 2, N-benzyl-2-methyl-1-propyl-1H-pyrrolo[2,3-c]pyridine-7-amine], for which the pIC50 was 6.01. Take `Cc1[nH]c2c(NCc3ccccc3)nccc2c1C` [Example 12, N-benzyl-2,3-dimethyl-1H-pyrrolo[2,3-c]pyridine-7-amine]: the pIC50 is 7.57.

As for `CCCn1c(C)c(C)c2ccnc(NCc3ccc(F)cc3C)c21` [Example 26, N-(4-fluoro-2-methylbenzyl)-2,3-dimethyl-1-propyl-1H-pyrrolo[2,3-c]pyridine-7-amine], the pIC50 is 7.62. For the compound `Cc1[nH]c2c(NC(=O)c3ccccc3)nccc2c1C` [Example 74, N-[7-(2,3-dimethyl-1H-pyrrolo[2,3-c]pyridyl)]benzamide], the pIC50 was 5.74.
